Experimental data as given in publication PMC8199213, “Pharmacophore-Based Virtual Screening of Novel Competitive Inhibitors of the Neurodegenerative Disease Target Kynurenine-3-Monooxygenase” (Molecules, 2021).

Assays:
[1] = molecular target: T1, human kynurenine-3-monooxygenase (hKMO) (Homo sapiens, UniProt O15229); experiment: KMO NADPH-consumption assay; […] inhibition at […], […] at […]; format: biochemical
T1 construct: gene KMO; purified KMO protein with C-terminal His-FLAG-tag

[2] = molecular target: T1, human kynurenine-3-monooxygenase (hKMO); experiment: KMO NADPH-consumption assay (BPS Bioscience KMO Screening Kit), dose-response; positive control; format: biochemical

T1 sequence (O15229 whole entry): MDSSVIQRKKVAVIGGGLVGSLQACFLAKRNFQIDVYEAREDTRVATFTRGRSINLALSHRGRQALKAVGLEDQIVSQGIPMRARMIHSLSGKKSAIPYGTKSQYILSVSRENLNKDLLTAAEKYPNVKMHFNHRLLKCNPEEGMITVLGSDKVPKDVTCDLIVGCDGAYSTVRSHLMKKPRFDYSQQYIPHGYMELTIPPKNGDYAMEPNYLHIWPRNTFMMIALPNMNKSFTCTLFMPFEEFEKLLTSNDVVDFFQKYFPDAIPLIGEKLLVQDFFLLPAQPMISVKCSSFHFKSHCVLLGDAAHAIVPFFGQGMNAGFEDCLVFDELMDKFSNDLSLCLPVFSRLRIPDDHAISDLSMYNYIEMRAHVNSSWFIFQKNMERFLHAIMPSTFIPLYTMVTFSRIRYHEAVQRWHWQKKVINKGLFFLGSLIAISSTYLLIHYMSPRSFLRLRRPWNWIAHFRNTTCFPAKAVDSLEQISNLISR

Compound	IC50 [1] [nM]	IC50 [2] [nM]
Cc1cc2nc(CCC(=O)O)c(=O)[nH]c2cc1C [VS6, F6548-0495]	< 10000	–
COc1ccc(S(=O)(=O)Nc2nc(-c3cccc([N+](=O)[O-])c3)cs2)cc1OC [Ro 61-8084]	–	727 ± 88
